Our source for the Ki and IC50 values is patent US10766884B2 (Pfizer Inc., priority 2018, dated 2020).

One experiment has as its target CDK4/Cyclin D1 (Homo sapiens (Human), UniProt P11802). As to the kind of experiment: CDK4/Cyclin D1 mobility shift assay. The class given is biochemical. Particulars: activated CDK4/Cyclin D1, 3.5 mM ATP, Morrison fit; read-out: CDK4D1 Ki.
A further experiment deals with CDK6/Cyclin D3 (Homo sapiens (Human), UniProt Q00534). As to the kind of experiment: CDK6/Cyclin D3 mobility shift assay. It is filed as biochemical. As to conditions: activated CDK6/Cyclin D3, 3.5 mM ATP, Morrison fit; read-out: CDK6_D3 Ki.
Another experiment concerns the target CDK4 (Homo sapiens (Human), UniProt P11802). Put plainly: Phospho-Serine 795 Rb ELISA assay in JEKO-1 cells. The class given is cell-based. Particulars: overnight treatment, phospho-Rb S795, read-out: CDK4 pRB S795 ELISA JEKO-1 cells IC50. For orientation: ELISA stands for enzyme-linked immunosorbent assay.
A further experiment deals with CDK6 (Homo sapiens (Human), UniProt Q00534). As to the kind of experiment: Phospho-Serine 795 Rb ELISA assay in MV4-11 cells. The class given is cell-based. Particulars: overnight treatment, phospho-Rb S795, read-out: CDK6 pRB S795 ELISA MV4-11 cells IC50.

pIC50, pKi: −log10 of the molar value. Counter-ions that a name gives are not always drawn.

Chain of CDK4/Cyclin D1 (P11802 whole entry): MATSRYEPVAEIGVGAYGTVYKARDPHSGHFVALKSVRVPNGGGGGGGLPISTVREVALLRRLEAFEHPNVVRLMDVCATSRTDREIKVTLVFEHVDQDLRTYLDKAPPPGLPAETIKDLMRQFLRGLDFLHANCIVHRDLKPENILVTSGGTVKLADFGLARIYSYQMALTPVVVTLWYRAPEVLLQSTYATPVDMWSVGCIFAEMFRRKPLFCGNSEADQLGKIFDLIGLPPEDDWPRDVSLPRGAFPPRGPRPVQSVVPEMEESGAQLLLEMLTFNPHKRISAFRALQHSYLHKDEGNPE
Chain of CDK4/Cyclin D1 (P24385 whole entry partner): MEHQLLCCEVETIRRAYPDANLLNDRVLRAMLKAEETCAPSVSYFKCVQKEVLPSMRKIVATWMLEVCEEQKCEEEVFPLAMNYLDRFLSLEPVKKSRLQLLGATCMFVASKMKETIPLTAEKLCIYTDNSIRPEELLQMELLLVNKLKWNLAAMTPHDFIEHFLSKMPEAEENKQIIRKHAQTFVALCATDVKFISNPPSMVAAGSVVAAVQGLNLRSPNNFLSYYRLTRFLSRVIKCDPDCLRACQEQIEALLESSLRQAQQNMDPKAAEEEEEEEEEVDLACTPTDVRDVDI
Chain of CDK6 (Q00534 whole entry): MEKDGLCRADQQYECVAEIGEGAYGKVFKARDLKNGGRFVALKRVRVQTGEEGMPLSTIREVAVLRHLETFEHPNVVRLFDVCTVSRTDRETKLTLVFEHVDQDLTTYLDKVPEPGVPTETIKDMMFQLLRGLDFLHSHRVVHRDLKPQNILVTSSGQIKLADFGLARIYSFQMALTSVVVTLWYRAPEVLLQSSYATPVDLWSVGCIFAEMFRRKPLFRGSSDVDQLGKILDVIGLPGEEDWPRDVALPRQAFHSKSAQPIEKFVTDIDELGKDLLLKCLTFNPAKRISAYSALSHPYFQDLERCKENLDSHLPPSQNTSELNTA
Chain of CDK6 (P30281 whole entry partner): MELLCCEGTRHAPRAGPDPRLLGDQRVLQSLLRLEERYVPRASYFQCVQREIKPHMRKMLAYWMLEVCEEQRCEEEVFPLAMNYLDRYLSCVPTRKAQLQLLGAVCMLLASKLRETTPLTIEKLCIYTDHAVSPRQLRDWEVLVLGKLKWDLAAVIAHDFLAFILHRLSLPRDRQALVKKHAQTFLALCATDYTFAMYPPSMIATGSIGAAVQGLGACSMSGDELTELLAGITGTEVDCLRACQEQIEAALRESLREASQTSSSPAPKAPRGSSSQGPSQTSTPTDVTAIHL
Chain of CDK6/Cyclin D3 (Q00534 whole entry): as the sequence (Q00534 whole entry) above
Chain of CDK6/Cyclin D3 (P30281 whole entry partner): as the sequence (P30281 whole entry partner) above
Chain of CDK4 (P11802 2-303): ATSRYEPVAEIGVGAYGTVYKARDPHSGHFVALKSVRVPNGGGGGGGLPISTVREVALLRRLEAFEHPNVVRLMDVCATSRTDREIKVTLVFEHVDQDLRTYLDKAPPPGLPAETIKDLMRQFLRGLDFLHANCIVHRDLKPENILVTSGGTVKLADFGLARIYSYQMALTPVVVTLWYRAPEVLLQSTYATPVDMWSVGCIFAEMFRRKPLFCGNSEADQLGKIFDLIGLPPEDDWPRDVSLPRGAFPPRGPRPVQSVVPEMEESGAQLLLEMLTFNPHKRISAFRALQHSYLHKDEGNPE
Chain of CDK4 (P24385 whole entry partner): as the sequence (P24385 whole entry partner) above

What is called pKi is the negative decadic logarithm of the Ki, by convention in mol/L. One may read the pIC50 as −log10 of the IC50, conventionally taken in molar units. For the compound `CC(C)n1c(CNC2COC2)nc2c(F)cc(-c3nc(N[C@@H]4CCOC[C@H]4O)ncc3Cl)cc21` [Example H05, 1,5-anhydro-3-({5-chloro-4-[4-fluoro-2-{[(oxetan-3-yl)amino]methyl}-1-(propan-2-yl)-1H-benzimidazol-6-yl]pyrimidin-2-yl}amino)-2,3-dideoxy-D-threo-pentitol], the results for the pKi on CDK4/Cyclin D1 and at CDK6/Cyclin D3 were 8.35 and 7.03, respectively. Moreover, the pIC50 on CDK4 is 6.60; on CDK6 it was 5.83.
Taken in the same sequence, the figures for `CC(C)n1c([C@H](C)O)nc2cc(F)c(-c3nc(N[C@@H]4CCOC[C@H]4O)ncc3Cl)cc21` [Example A12] were 9.22, 8.10, 7.53 and 6.96.
The matching figures for `CC(N)c1nc2c(F)cc(-c3nc(N[C@@H]4CCN(S(C)(=O)=O)C[C@H]4O)ncc3Cl)cc2n1C(C)C` (single isomer, unassigned) [Example A47]: 9.00, 7.61, 6.42 and 6.43.
Taken in the same sequence, the figures for `CC1(C)CCc2nc3c(F)cc(-c4nc(N[C@@H]5CCN(S(C)(=O)=O)C[C@H]5O)ncc4Cl)cc3n21` [Example A09] were 10.00, 8.85, 7.77 and 7.24.
With `Cc1cnc(N[C@@H]2CCN(S(C)(=O)=O)C[C@H]2O)nc1-c1cc(F)c2nc(C)n(C(C)C)c2c1` [Example A83, (3R,4R)-4-({4-[4-fluoro-2-methyl-1-(propan-2-yl)-1H-benzimidazol-6-yl]-5-methylpyrimidin-2-yl}amino)-1-(methanesulfonyl)piperidin-3-ol], the results for the pKi at CDK4/Cyclin D1 and at CDK6/Cyclin D3 were 8.39 and 7.05, respectively. In addition, the pIC50 on CDK4 is 6.40; on CDK6, 5.91.
Taken in the same sequence, the figures for `Cc1nc2cc(F)c(-c3nc(N[C@@H]4CCN(S(C)(=O)=O)C[C@H]4O)ncc3F)cc2n1C(C)C` [Example A07] were 8.74, 7.55, 6.74 and 6.28.
Taken in the same sequence, the figures for `CC(C)(C)n1cnc2ccc(-c3nc(N[C@@H]4CCN(S(C)(=O)=O)C[C@H]4O)ncc3F)cc21` [Example A77, (3R,4R)-4-{[4-(1-tert-butyl-1H-benzimidazol-6-yl)-5-fluoropyrimidin-2-yl]amino}-1-(methanesulfonyl)piperidin-3-ol] were 9.52, 8.31, 7.21 and 6.90.
Take `CNCC(=O)N1CC[C@@H](Nc2ncc(Cl)c(-c3cc(F)c4ncn(C(C)(C)C)c4c3)n2)[C@H](O)C1` [Example F25, 1-[(3R,4R)-4-{[4-(1-tert-butyl-4-fluoro-1H-benzimidazol-6-yl)-5-chloropyrimidin-2-yl]amino}-3-hydroxypiperidin-1-yl]-2-(methylamino)ethan-1-one]: the pKi at CDK4/Cyclin D1 is 8.92; on CDK6/Cyclin D3 it was 7.71. Further, the pIC50 on CDK4 and at CDK6 was 6.34 throughout.
`CNCc1nc2c(F)cc(-c3nc(N[C@@H]4CCOC[C@H]4O)ncc3Cl)cc2n1C(C)C` [Example A44, 1,5-anhydro-3-[(5-chloro-4-{4-fluoro-2-[(methylamino)methyl]-1-(propan-2-yl)-1H-benzimidazol-6-yl}pyrimidin-2-yl)amino]-2,3-dideoxy-D-threo-pentitol]: the negative-log Ki (pKi) on CDK4/Cyclin D1 was 8.31; at CDK6/Cyclin D3, 6.94. The pIC50 at CDK4 is 7.12; at CDK6, 6.39.
The matching figures for `Cc1cc(-c2nc(N[C@@H]3CCN(S(C)(=O)=O)C[C@H]3O)ncc2F)cc2c1nc(C)n2C(C)C` [Example A79, (3R,4R)-4-({4-[2,4-dimethyl-1-(propan-2-yl)-1H-benzimidazol-6-yl]-5-fluoropyrimidin-2-yl}amino)-1-(methanesulfonyl)piperidin-3-ol]: 8.74, 7.75, 6.22 and 5.94.
Turning to `CC(C)n1c(C(C)(O)C2CC2)nc2c(F)cc(-c3nc(N[C@@H]4CCOC[C@H]4O)ncc3Cl)cc21` (single isomer, unassigned) [Example A24], the figures for the pKi at CDK4/Cyclin D1 and at CDK6/Cyclin D3 were 8.89 and 7.79, respectively. Also, the pIC50 was 7.40 on CDK4 and 6.78 on CDK6.
The matching figures for `CC1CNCc2nc3c(F)cc(-c4nc(N[C@@H]5CCOC[C@H]5O)ncc4Cl)cc3n21` (single isomer, unassigned) [Example A55, 1,5-anhydro-3-{[5-chloro-4-(9-fluoro-4-methyl-1,2,3,4-tetrahydropyrazino[1,2-a]benzimidazol-7-yl)pyrimidin-2-yl]amino}-2,3-dideoxy-D-threo-pentitol]: 8.49, 7.19, 6.70 and 6.55.
Taken in the same sequence, the figures for `CC(C)n1c(CN2CCC2)nc2c(F)cc(-c3nc(N[C@@H]4CCOC[C@H]4O)ncc3Cl)cc21` [Example H07, 1,5-anhydro-3-[(4-{2-[(azetidin-1-yl)methyl]-4-fluoro-1-(propan-2-yl)-1H-benzimidazol-6-yl}-5-chloropyrimidin-2-yl)amino]-2,3-dideoxy-D-threo-pentitol] were 8.85, 7.37, 7.32 and 6.39.
The matching figures for `CC(C)n1c(CC2(N)CCCC2)nc2c(F)cc(-c3nc(N[C@@H]4CCOC[C@H]4O)ncc3Cl)cc21` [Example A59, 3-[(4-{2-[(1-aminocyclopentyl)methyl]-4-fluoro-1-(propan-2-yl)-1H-benzimidazol-6-yl}-5-chloropyrimidin-2-yl)amino]-1,5-anhydro-2,3-dideoxy-D-threo-pentitol]: 9.22, 7.25, 7.32 and 6.28.
Take `CC(C)NCc1nc2c(F)cc(-c3nc(N[C@@H]4CCOC[C@H]4O)ncc3Cl)cc2n1C(C)C` [Example H08, 1,5-anhydro-3-({5-chloro-4-[4-fluoro-1-(propan-2-yl)-2-{[(propan-2-yl)amino]methyl}-1H-benzimidazol-6-yl]pyrimidin-2-yl}amino)-2,3-dideoxy-D-threo-pentitol]: the pKi at CDK4/Cyclin D1 is 8.92; at CDK6/Cyclin D3 it was 7.35. For the same compound, the pIC50 is 7.45 at CDK4 and 6.51 at CDK6.
As for `Cc1nc2c(F)cc(-c3nc(N[C@@H]4CCN(S(C)(=O)=O)C[C@H]4O)ncc3F)cc2n1C1CNC1` [Example A88, (3R,4R)-4-({4-[1-(azetidin-3-yl)-4-fluoro-2-methyl-1H-benzimidazol-6-yl]-5-fluoropyrimidin-2-yl}amino)-1-(methanesulfonyl)piperidin-3-ol], the figures for the pKi on CDK4/Cyclin D1 and at CDK6/Cyclin D3 were 8.35 and 7.09, respectively. Moreover, the values for the pIC50 on CDK4 and on CDK6 were 5.14 and 5.00, respectively.
Taken in the same sequence, the figures for `CC(C)(C)n1cnc2ccc(-c3cc(N[C@@H]4CCN(C(=O)CO)C[C@H]4O)ncc3Cl)nc21` [Example F22, 1-[(3R,4R)-4-{[4-(3-tert-butyl-3H-imidazo[4,5-b]pyridin-5-yl)-5-chloropyridin-2-yl]amino}-3-hydroxypiperidin-1-yl]-2-hydroxyethan-1-one] were 9.30, 8.04, 7.21 and 6.77.
The matching figures for `Cn1nc2c(F)cc(-c3nc(N[C@@H]4CCOC[C@H]4O)ncc3Cl)cc2c1C(C)(C)N` [Example A49, 3-({4-[3-(2-aminopropan-2-yl)-7-fluoro-2-methyl-2H-indazol-5-yl]-5-chloropyrimidin-2-yl}amino)-1,5-anhydro-2,3-dideoxy-D-threo-pentitol]: 9.15, 7.84, 7.12 and 6.66.
The matching figures for `CN(C)CCN1CC[C@@H](Nc2ncc(Cl)c(-c3cc(F)c4ncn(C(C)(C)C)c4c3)n2)[C@H](O)C1` [Example F06, (3R,4R)-4-{[4-(1-tert-butyl-4-fluoro-1H-benzimidazol-6-yl)-5-chloropyrimidin-2-yl]amino}-1-[2-(dimethylamino)ethyl]piperidin-3-ol formic acid salt]: 8.82, 7.56, 6.79 and 6.87.
Consider `CCS(=O)(=O)N1CC[C@@H](Nc2ncc(Cl)c(-c3cc(F)c4nc(C)n(C5COC5)c4c3)n2)[C@H](O)C1` [Example F08, (3R,4R)-4-({5-chloro-4-[4-fluoro-2-methyl-1-(oxetan-3-yl)-1H-benzimidazol-6-yl]pyrimidin-2-yl}amino)-1-(ethanesulfonyl)piperidin-3-ol], for which the pKi on CDK4/Cyclin D1 is 9.30; at CDK6/Cyclin D3, 7.94. The pIC50 at CDK4 is 6.96; at CDK6, 6.51.
Taken in the same sequence, the figures for `CC(C)n1c(CC(N)C(F)F)nc2c(F)cc(-c3nc(N[C@@H]4CCOC[C@H]4O)ncc3Cl)cc21` (single isomer, unassigned) [Example A58, 3-({4-[2-(2-amino-3,3-difluoropropyl)-4-fluoro-1-(propan-2-yl)-1H-benzimidazol-6-yl]-5-chloropyrimidin-2-yl}amino)-1,5-anhydro-2,3-dideoxy-D-threo-pentitol] were 9.22, 7.75, 7.48 and 6.69.
